Where two headings read alike, the source gives them in different places. Starred links: 1 amine or outer side, 2 acyl side, 3 side chain; linkers in the order of their positions; H or OH if unused. Non-standard residues stand in square brackets, D forms with d. Residues, ends and D or L forms follow the SMILES beside them. *: point of attachment. X1 = O=C([C@H](Cc1ccc2ccc3cccc4ccc1c2c34)N[*:1])[*:2]; Phe(4-Cl) = N[C@@H](Cc1ccc(Cl)cc1)C(=O)O; Cha = N[C@@H](CC1CCCCC1)C(=O)O; Morpholide = C1CN(*)CCO1; Dap = NC[C@H](N)C(=O)O; Hexanoyl = CCCCCC(=O)*
Experiments:
[1] = target: T1, APJ (Homo sapiens, UniProt P35414); experiment: Inhibitory activity on forskolin-stimulated cAMP production in CHO-A10 clone 6 cells; format: cell-based
T1 construct: expressed in transfected cells; host or cells: CHO (CHO-A10; clone 6 for the cAMP assay)
T1 sequence (P35414 1-380): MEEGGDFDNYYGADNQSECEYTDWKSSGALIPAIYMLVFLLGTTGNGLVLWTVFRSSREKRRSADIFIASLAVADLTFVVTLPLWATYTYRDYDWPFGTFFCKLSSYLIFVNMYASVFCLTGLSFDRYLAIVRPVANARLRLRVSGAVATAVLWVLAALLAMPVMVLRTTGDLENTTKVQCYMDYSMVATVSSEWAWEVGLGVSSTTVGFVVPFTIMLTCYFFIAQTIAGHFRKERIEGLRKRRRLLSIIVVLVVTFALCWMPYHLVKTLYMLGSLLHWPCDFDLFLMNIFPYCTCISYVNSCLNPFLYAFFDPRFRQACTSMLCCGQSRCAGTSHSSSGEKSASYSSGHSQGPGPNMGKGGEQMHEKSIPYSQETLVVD
Protocol: Measurement of an Inhibitory Activity on Forskolin-Stimulated cAMP Production
Hanks' balanced salt solution (HBSS) containing 0.2 mM 3-isobutyl-1-methylxanthine (IBMX) and 0.05% bovine serum albumin was prepared as an assay buffer, and each well was washed twice with 500 μl assay buffer and pre-incubated at 37° C. for 30 minutes. Further, each well was washed once with 500 μl assay buffer, and a sample dissolved in the assay buffer containing 1 μM forskolin was added at a volume of 500 μl/well and incubated at 37° C. for 30 minutes. Wells incubated with the assay buffer not containing forskolin were prepared in the same manner in order to determine the basal level of cellular cAMP production, while wells incubated with the assay buffer containing forskolin were also prepared in order to determine the maximum level of cAMP production stimulated with forskolin. After incubation was finished, each well was washed once with 500 μl assay buffer, and 500 μl lysis buffer 1B attached to a cAMP EIA system from Amersham was added to each well, to extract cAMP. According to the protocol of the kit, 100 μl of each extract was used to determine the level of cAMP. For the inhibitory activity of the sample on cAMP production, the difference (inhibited cAMP production) between the maximum level and the level of cAMP in the sample-containing wells was determined, and the inhibitory activity was expressed as percentage relative to the increased level of cAMP production stimulated with forskolin (that is, the difference between the maximum level and basal level), and from this dose-reaction curve, the EC50 was determined.

[2] = target: T1, APJ; experiment: Receptor binding assay-2 (compound in Reference Example 2 used)
Protocol: This product was mixed with an equal volume of an assay buffer (50 mM Tris-HCl/pH 7.5, 5 mM EDTA, 0.5 mM PMSF, 20 μg/ml leupeptin, 0.1 μg/ml pepstatin A, 4 μg/ml E-64 (Peptide Research Laboratory, Co.), 0.1% bovine serum albumin) and stored at −30° C. before use.
CHO-A10 cells were cultured, recovered with PBS containing 5 mM EDTA from a culture vessel, and suspended in the above-mentioned assay buffer not containing bovine serum albumin. The cells were homogenized 3 times at 12,000 rpm for 15 seconds by a Polytron homogenizer (manufactured by Kinematica Inc.) and then centrifuged (1000×g, 4° C., 10 minutes), and the supernatant was recovered. The precipitates were subjected again to the same procedure as above, and the respective supernatants were combined and centrifuged at 100,000×g, 4° C. for 1 hour, to recover precipitates (membrane fraction). The membrane fraction was suspended again in a small amount of the buffer, homogenized with a Teflon homogenizer and stored at −80° C. before use.
Binding assay was carried out under the following conditions. […] Measurement of non-specific binding was carried out using a well containing 1 μM unlabeled compound in place of the test sample. After the incubation was finished, a cell harvester (Packard) adapted to 96 wells and a filter unit (GF/C, Packard) were used for separation thereby capturing the membrane fraction on the filter. After the filter was sufficiently dried, Microcinti 0 (Packard) was added thereto, and using Top Count (Packard), the amount of the labeled material captured together with the membrane fraction on the filter was measured.

[3] = compound in Reference Example 2 used as ligand, read-out: IC50

CC(C)C[C@H](NC(=O)[C@H](CCCNC(=N)N)NC(=O)[C@@H]1CCCN1C(=O)[C@@H](N)CCCNC(=N)N)C(=O)N[C@@H](CO)C(=O)N[C@@H](C)C(=O)N[C@@H](CCCNC(=N)N)C(=O)NCC(=O)N1CCC[C@H]1C(=O)N[C@@H](CC1CCCCC1)C(=O)N1CCC[C@H]1C(=O)N[C@@H](Cc1ccc2ccc3cccc4ccc1c2c34)C(=O)O [Compound in Ex. 61] (H-RPRLSARGP[Cha]P[X1]-OH; N-terminus and C-terminus assumed)
EC50 [1]: 2200 pM | IC50 [2]: 560 pM

CCCCCC(=O)NC[C@H](NC(=O)[C@H](CO)NC(=O)[C@H](CC(C)C)NC(=O)[C@H](CCCNC(=N)N)NC(=O)[C@@H]1CCCN1C(=O)[C@@H](N)CCCNC(=N)N)C(=O)N[C@@H](CCCNC(=N)N)C(=O)NCC(=O)N1CCC[C@H]1C(=O)N[C@@H](CC1CCCCC1)C(=O)N1CCC[C@H]1C(=O)N[C@@H](Cc1ccc(Cl)cc1)C(=O)O [Compound in Ex. 67, Arg-Pro-Arg-Leu-Ser-Dap(C6)-Arg-Gly-Pro-Cha-Pro-Phe(Cl)] (H-RPRLS[Dap](Hexanoyl)RGP[Cha]P[Phe(4-Cl)]-OH; N-terminus and C-terminus assumed)
EC50 ([1]; read-out: EC50): 1100 pM | IC50 [2, 3]: 450 pM

CC(C)C[C@H](NC(=O)[C@H](CCCNC(=N)N)NC(=O)[C@@H]1CCCN1C(=O)[C@@H](N)CCCNC(=N)N)C(=O)N[C@@H](Cc1ccccc1)C(=O)N[C@@H](Cc1c[nH]cn1)C(=O)N[C@@H](CCCCN)C(=O)NCC(=O)N1CCC[C@H]1C(=O)N[C@@H](CC1CCCCC1)C(=O)N[C@@H](Cc1ccc(Cl)cc1)C(=O)O [Compound in Ex. 37] (H-RPRLFHKGP[Cha][Phe(4-Cl)]-OH; N-terminus and C-terminus assumed)
EC50 ([1]; read-out: EC50): 430 pM | IC50 [2, 3]: 540 pM

CSCC[C@H](NC(=O)[C@@H]1CCCN1C(=O)CNC(=O)[C@H](CCCNC(=N)N)NC(=O)[C@H](C)NC(=O)[C@H](CO)NC(=O)[C@H](CC(C)C)NC(=O)[C@H](CCCNC(=N)N)NC(=O)[C@@H]1CCCN1C(=O)[C@H](CCCNC(=N)N)NC(=O)[C@H](CCC(N)=O)NC(=O)[C@H](CCCNC(=N)N)NC(=O)[C@@H](N)CCCNC(=N)N)C(=O)N1CCC[C@H]1C(=O)N[C@@H](Cc1ccc(Cl)cc1)C(N)=O [Compound in Ex. 59]
EC50 ([1]; read-out: EC50): 320 pM | IC50 [2, 3]: 180 pM

CC(C)C[C@H](NC(=O)[C@H](CCCNC(=N)N)NC(=O)[C@@H]1CCCN1C(=O)[C@@H](N)CCCNC(=N)N)C(=O)N[C@@H](CO)C(=O)N[C@@H](C)C(=O)N[C@@H](CCCNC(=N)N)C(=O)NCC(=O)N1CCC[C@H]1C(=O)N[C@@H](C)C(=O)N1CCC[C@H]1C(=O)N[C@@H](Cc1ccc(Cl)cc1)C(=O)O [Compound in Ex. 53] (H-RPRLSARGPAP[Phe(4-Cl)]-OH; N-terminus and C-terminus assumed)
EC50 ([1]; read-out: EC50): 370 pM | IC50 [2, 3]: 64 pM

CSCC[C@H](NC(=O)[C@@H]1CCCN1C(=O)CNC(=O)[C@H](CCCCN)NC(=O)[C@H](Cc1c[nH]cn1)NC(=O)[C@H](CO)NC(=O)[C@H](CC(C)C)NC(=O)[C@H](CCCNC(=N)N)NC(=O)[C@@H]1CCCN1C(=O)[C@H](CCCNC(=N)N)NC(=O)[C@H](CCCNC(=N)N)NC(=O)[C@H](CCCNC(=N)N)NC(=O)[C@@H](N)CCCNC(=N)N)C(=O)N1CCC[C@H]1C(=O)N[C@@H](Cc1ccccc1)C(=O)O [Compound in Ex. 22]
EC50 ([1]; read-out: EC50): 320 pM | IC50 [2, 3]: 120 pM

CC(C)C[C@H](NC(=O)[C@H](CCCNC(=N)N)NC(=O)[C@@H]1CCCN1C(=O)[C@H](CCCNC(=N)N)NC(=O)[C@H](CCC(N)=O)NC(=O)[C@H](CCCNC(=N)N)NC(=O)[C@@H](N)CCCNC(=N)N)C(=O)N[C@@H](CO)C(=O)N[C@@H](C)C(=O)N[C@@H](CCCNC(=N)N)C(=O)NCC(=O)N1CCOCC1 [Compound in Ex. 52] (H-RRQRPRLSARG-Morpholide; N-terminus assumed)
EC50 ([1]; read-out: EC50): 1200 pM | IC50 [2, 3]: 260 pM

Reference: US20040116336A1, “Peptide derivatives” (priority 2002, published 2004)
